Patent US20220144902A1, “METHOD FOR INDUCING MUSCULAR CELLS USING CELLS IN SPOT URINE” (NATIONAL CENTER OF NEUROLOGY AND PSYCHIATRY, priority 2018, published 2022)

Each compound was assayed on MYOD1-positive urine-derived cells (assay: Promotion of myotube induction by low molecular compounds, myosin heavy chain immunocytochemistry). Details: compound added to differentiation medium with doxycycline; FIG. 3A 1 μM, FIG. 3B 10 μM.
Format: cell-based, human
Experimental: (§1) The MYOD1-positive urine-derived cells were plated onto a collagen-coated culture dish or plate and cultured in a differentiation medium supplemented with doxycycline (e.g., 1 μg/ml) (the medium containing high-glucose-containing DMEM with GlutaMAX-I (Thermo Fisher Scientific; 10569-010), 5% horse serum, ITS Liquid Media Supplement (Sigma; 13146), and 1 μg/ml doxycycline) to induce the myotubes. Whether or not muscular differentiation could be promoted with the addition of a low molecular compound in a compound library (Sigma; S990043-EPI1) to the differentiation medium was examined. The low molecular compound was added at a final concentration of 0.1, 1, or 10 μM. Myotube induction was evaluated by immunocytochemistry and Western blotting.
For immunocytochemistry, cultured cells were washed in PBS, fixed in 4% paraformaldehyde, and then incubated with the addition of 0.1% Triton-X at room temperature for 10 minutes. The anti-myosin heavy chain antibody (1:50, R&D, Minneapolis, U.S.A.; MAB4470) and the anti-dystrophin antibody (1:30, Novocastra, Newcastle, UK; NCL-DYS1) were used as primary antibodies, and Alexa Fluor 546 goat anti-mouse IgG (H+L) (1:300, Invitrogen; A11003) was used as a secondary antibody. Nuclear staining was performed with the use of Hoechst 33342. An image was obtained using a fluorescence microscope (BZ-9000 or BZ-X800, KEYENCE, Osaka, Japan) and analyzed using the BZ-X Analyzer (KEYENCE).
As a result, it was founded that a degree of muscular differentiation evaluated in terms of the myosin heavy chain protein expression level by immunocytochemistry was enhanced to a significant extent with the addition of the epigenetic regulatory compound(s) to the differentiation medium (FIGS. 3 and 4). […] Also, effects of histone methyltransferase inhibitors (GSK343, SGC707, furamidine dihydrochloride, UNC2327, E7438, and MI-2 (menin-MLL inhibitor)), histone demethylase inhibitors (IOX 1 and GSK-J1), histone deacetylase (HDAC) inhibitors (VORINOSTAT, LMK-235, CAY10603, and BRD73954), SIRT2 inhibitor (SirReal 2), and PARP inhibitor (EB47) were observed. In FIG. 3, a horizontal axis represents a type of a compound added, and a vertical axis represents an area of a myosin heavy chain-positive region determined by immunocytochemistry. […] Statistical analysis was performed by a Kruskal-Wallis test at a significance level of p<0.05. “*,” “**,” and “***” indicate p<0.05, p<0.01, and p<0.001, respectively.
In the case of `O=C(NO)c1cccc(C(=O)NCCc2ccccc2)c1` [BRD73954], the “degree of muscular differentiation evaluated in terms of the myosin heavy chain protein expression level by immunocytochemistry” value is reported as “observed”.
In the case of `CC(C)(C)OC(=O)Nc1ccc(-c2cc(C(=O)NCCCCCCC(=O)NO)no2)cc1` [CAY10603], the “degree of muscular differentiation evaluated in terms of the myosin heavy chain protein expression level by immunocytochemistry” value is reported as “observed”.
In the case of `Cl.Nc1nccc2c1ncn2[C@@H]1C=C(CO)[C@@H](O)[C@H]1O` [DZNep, 3-deazaneplanocin A hydrochloride], the “degree of muscular differentiation evaluated in terms of the myosin heavy chain protein expression level by immunocytochemistry” value is reported as “high”.
For `CCN(c1cc(-c2ccc(CN3CCOCC3)cc2)cc(C(=O)NCc2c(C)cc(C)[nH]c2=O)c1C)C1CCOCC1` [E7438], the “degree of muscular differentiation evaluated in terms of the myosin heavy chain protein expression level by immunocytochemistry” value was “observed”.
With `Cl.Cl.Nc1ncnc2c1ncn2[C@@H]1O[C@H](C(=O)N2CCN(CC(=O)Nc3cccc4c3CNC4=O)CC2)[C@@H](O)[C@H]1O` [EB47] the “degree of muscular differentiation evaluated in terms of the myosin heavy chain protein expression level by immunocytochemistry” value was “observed”.
With `CCCc1cc(C)[nH]c(=O)c1CNC(=O)c1cc(-c2ccnc(N3CCN(C)CC3)c2)cc2c1cnn2C(C)C` [GSK343] the “degree of muscular differentiation evaluated in terms of the myosin heavy chain protein expression level by immunocytochemistry” value was “observed”.
For `O=C(O)CCNc1cc(N2CCc3ccccc3CC2)nc(-c2ccccn2)n1` [GSK-J1], the “degree of muscular differentiation evaluated in terms of the myosin heavy chain protein expression level by immunocytochemistry” value was “observed”.
`O=C(O)c1ccc(O)c2ncccc12` [IOX 1] was tested, and the “degree of muscular differentiation evaluated in terms of the myosin heavy chain protein expression level by immunocytochemistry” value was “observed”.
`Cc1cc(C)cc(C(=O)NOCCCCCC(=O)NO)c1` [LMK-235] was tested, and the “degree of muscular differentiation evaluated in terms of the myosin heavy chain protein expression level by immunocytochemistry” value was “observed”.
`CCCc1cc2c(N3CCN(C4=NCC(C)(C)S4)CC3)ncnc2s1` [MI-2 (menin-MLL inhibitor)] was tested, and the “degree of muscular differentiation evaluated in terms of the myosin heavy chain protein expression level by immunocytochemistry” value was “observed”.
`O=C(NCC(=O)N1CCCC1)Nc1ccc2cnccc2c1` [SGC707] was tested, and the “degree of muscular differentiation evaluated in terms of the myosin heavy chain protein expression level by immunocytochemistry” value was “observed”.
`Cc1cc(C)nc(SCC(=O)Nc2ncc(Cc3cccc4ccccc34)s2)n1` [SirReal 2] was tested, and the “degree of muscular differentiation evaluated in terms of the myosin heavy chain protein expression level by immunocytochemistry” value was “observed”.
For `O=C(CCCCCCC(=O)Nc1ccccc1)NO` [VORINOSTAT], the “degree of muscular differentiation evaluated in terms of the myosin heavy chain protein expression level by immunocytochemistry” value was “observed”.
In the case of UNC2327, the “degree of muscular differentiation evaluated in terms of the myosin heavy chain protein expression level by immunocytochemistry” value is reported as “observed”.

The compounds below were run on myotubes induced from urine-derived cells obtained from 4 healthy subjects (assay: Promotion of myotube induction, Western blotting of myosin heavy chain and dystrophin). Details: in the presence of DZNep; urine-derived cells from 4 healthy subjects.
Format: cell-based, human
Experimental: as §1
The effects of DZNep on promoting myotube induction were also examined by Western blotting. […] The total protein concentration was measured using the BCA protein assay kit (Thermo Fisher Scientific; 23227), denaturation was performed using NuPAGE® LDS Sample Buffer (Thermo Fisher Scientific; NP0007), SDS-PAGE was performed on 3% to 8% NuPAGE® Novex Tris-Acetate Gel (Invitrogen; EA03785BOX), and the resultant was transferred onto a PVDF membrane (Millipore, Billerica, Mass., U.S.A.; IPVH304F0). […] After the antibody reaction, a band of interest was detected using the ECL Prime Western Blotting Detection Reagent (GE Healthcare, UK; RPN2232). […]
`Cl.Nc1nccc2c1ncn2[C@@H]1C=C(CO)[C@@H](O)[C@H]1O` [DZNep, 3-deazaneplanocin A hydrochloride] was tested, and the “dystrophin expression by Western blotting” value was “expressed at high levels” and the “myosin heavy chain expression by Western blotting” value was “expressed at high levels”.
